ChEMBL document CHEMBL1201862, “PubChem BioAssay data set” (2004)
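Tested at 5 concentrations; 48 h exposure; 96-well plates; endpoints linearly interpolated, else capped at highest concentration. At the GI50, growth is halved.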 Activity calls are given as the source filed them. Cut-off read from the data, not from the text of the source: active = GI50 up to about 1.1 µM and inactive = higher.

Experiments:
Test in all cases: inhibition of tumour cell growth, NCI panel, 48 h
HOP-62 = tested on: HOP-62
SN12C = tested on: SN12C
KM12 = tested on: KM12
UO-31 = tested on: UO-31
SK-MEL-5 = tested on: SK-MEL-5
ACHN = tested on: ACHN
SF-539 = tested on: SF-539
SR = tested on: SR
CAKI-1 = tested on: CAKI-1
COLO 205 = tested on: COLO 205
SNB-19 = tested on: SNB-19
SK-MEL-28 = tested on: SK-MEL-28
NCI-H460 = tested on: NCI-H460
NCI-H522 = tested on: NCI-H522
LOX IMVI = tested on: LOX IMVI
786-0 = tested on: 786-0
HOP-92 = tested on: HOP-92
SNB-78 = tested on: SNB-78
UACC-62 = tested on: UACC-62
BT-549 = tested on: BT-549

| SMILES | GI50 (HOP-62) | GI50 (SN12C) | GI50 (KM12) | GI50 (UO-31) | GI50 (SK-MEL-5) | GI50 (ACHN) | GI50 (SF-539) | GI50 (SR) | GI50 (CAKI-1) | GI50 (COLO 205) | GI50 (SNB-19) | GI50 (SK-MEL-28) | GI50 (NCI-H460) | GI50 (NCI-H522) | GI50 (LOX IMVI) | GI50 (786-0) | GI50 (HOP-92) | GI50 (SNB-78) | GI50 (UACC-62) | GI50 (BT-549) |
| --- | --- | --- | --- | --- | --- | --- | --- | --- | --- | --- | --- | --- | --- | --- | --- | --- | --- | --- | --- | --- |
| CC(C)C12C=CC(C)(CC1)n1c(=O)c3cc4ccccc4cc3c(=O)n12 (centres undefined) | > 100 µM (inactive) | 34.7 µM (inactive) | 50.8 µM (inactive) | 24.9 µM (inactive) | 32 µM (inactive) | 36.4 µM (inactive) | 66.7 µM (inactive) | 33.5 µM (inactive) | 87.9 µM (inactive) | 41.9 µM (inactive) | 40.5 µM (inactive) | > 100 µM (inactive) | 45.5 µM (inactive) | 29.3 µM (inactive) | 41.9 µM (inactive) | 55.3 µM (inactive) | 38.5 µM (inactive) | > 100 µM (inactive) |  |  |
| Nc1nc(N)c2ncn(CCCC(c3ccccc3)P(=O)(O)O)c2n1 (centres undefined) | > 100 µM (inactive) | > 100 µM (inactive) | > 100 µM (inactive) | > 100 µM (inactive) | > 100 µM (inactive) | > 100 µM (inactive) | > 100 µM (inactive) | > 100 µM (inactive) | > 100 µM (inactive) | > 100 µM (inactive) | > 100 µM (inactive) | > 100 µM (inactive) | > 100 µM (inactive) | > 100 µM (inactive) | > 100 µM (inactive) | > 100 µM (inactive) | > 100 µM (inactive) | > 100 µM (inactive) | > 100 µM (inactive) |  |
| O=C1C=C(NCCc2ccccc2)c2ccccc2C1=O | 2.55 µM (inactive) | 1.85 µM (inactive) | 2.63 µM (inactive) | 3.72 µM (inactive) | 1.09 µM (active) | 2.82 µM (inactive) | 2.19 µM (inactive) | 5.94 µM (inactive) | 9.48 µM (inactive) | 1.83 µM (inactive) | 2.81 µM (inactive) | 1.87 µM (inactive) | 1.57 µM (inactive) | 1.71 µM (inactive) | 1.43 µM (inactive) | 3.64 µM (inactive) | 12.5 µM (inactive) | 16.6 µM (inactive) | 1.79 µM (inactive) | 2.23 µM (inactive) |
| COc1ccc(C2C(C)C(=O)C(C)C(c3ccc(OC)cc3)N2N=O)cc1 (centres undefined) | 87.1 µM (inactive) | 530 µM (inactive) | > 678 µM (inactive) | 495 µM (inactive) | > 575 µM (inactive) | 175 µM (inactive) | > 75.5 µM (inactive) | > 685 µM (inactive) | 246 µM (inactive) | > 550 µM (inactive) | 195 µM (inactive) | > 640 µM (inactive) | > 659 µM (inactive) | > 427 µM (inactive) | 453 µM (inactive) | 84.3 µM (inactive) | 53.5 µM (inactive) | 121 µM (inactive) | > 506 µM (inactive) |  |
| Cc1cc(-c2c(F)cc3c4nn([C@H]5CC[C@@H](N(C)C)CC5)c(=O)c-4cn(C4CC4)c3c2F)cc(C)n1 | 0.097 µM (active) | 0.168 µM (active) | 0.313 µM (active) | 1.59 µM (inactive) | 0.289 µM (active) | 0.214 µM (active) | 0.177 µM (active) | 0.0735 µM (active) | 0.0519 µM (active) | 0.208 µM (active) | 0.309 µM (active) | 0.687 µM (active) | < 0.0224 µM (active) | 0.169 µM (active) | 0.0998 µM (active) | 0.133 µM (active) | 0.0453 µM (active) | 0.28 µM (active) | 0.159 µM (active) | 0.479 µM (active) |
| CC(=O)NNc1nc(C)c(C(=O)NNC(=O)C(=O)Nc2ccc(C)cc2[N+](=O)[O-])s1 | > 100 µM (inactive) | > 100 µM (inactive) | > 100 µM (inactive) | > 100 µM (inactive) | > 100 µM (inactive) | > 100 µM (inactive) | > 100 µM (inactive) | 65.2 µM (inactive) | > 100 µM (inactive) | > 100 µM (inactive) | > 100 µM (inactive) | > 100 µM (inactive) | > 100 µM (inactive) | 20.7 µM (inactive) | 56.4 µM (inactive) | > 100 µM (inactive) | > 100 µM (inactive) | > 100 µM (inactive) | > 100 µM (inactive) |  |
| CCCCC(C(=O)CCC(=O)Nc1ccc(Cl)c(Cl)c1)C(=O)C(C)C (centres undefined) | > 100 µM (inactive) | > 100 µM (inactive) | 84.7 µM (inactive) | > 100 µM (inactive) | > 100 µM (inactive) | 31.2 µM (inactive) | > 100 µM (inactive) | > 100 µM (inactive) | > 100 µM (inactive) | > 100 µM (inactive) | > 100 µM (inactive) | > 100 µM (inactive) | > 100 µM (inactive) | > 100 µM (inactive) | 63.2 µM (inactive) | > 100 µM (inactive) | > 100 µM (inactive) | > 100 µM (inactive) | 19.6 µM (inactive) |  |
